The nature of data set [1]: Toxicity in the mouse (Litchfield and Wilcoxon). As to conditions: mouse, in vivo. The data set is classed as in vivo. Here is the method: (6) Toxicity in the mouse
Toxicity was determined according to Litchfield and Wilcoxon (J. Pharmacol. exp. Ther. 97 (1949), page 399) in the mouse. In comparison, the values with the known substance aescin sodium salt were determined. Comparative tests with 0.1% solution, of venous and optical compatibility on the rabbit yielded similar results.

In data set [2] the test system is isolated portal vein. The experiment in a line: Isolated rat's portal vein (Berti), increase in tonus. Here is the method:
(2) Isolated rat's portal vein
The tests on the rat's portal vein, an organ with its own rhythm, were performed according to the method of Berti et al (Arch. int. Pharmacodyn. 184 (1970), page 328). In Table 4, the increase in tonus at various adrenalin concentrations is given in milligrams. As a comparison, the values for the known substance heptaminol (=6-amino-2-methylheptane-2-ol) are also given.

Data set [3] deals with perfused rabbit ear. Put plainly: Blood-flow change in perfused isolated rabbit ear, vaso-dilator activity (Ringer-Norfenefrin solution). As for the experimental part:
(3) Blood-flow change in an isolated rabbit ear
The tests were carried out according to Krakow-Pissemski (Pflugers Archiv 151 (1913), page 583 and 156 (1914), page 426). In Table 5a the estimated values of the vaso-constrictor activity in Ringer solutions of varying concentrations are given and in Table 5b values for vasodilatory activity in Ringer-Norfenefrin solutions of varying concentrations are given. As a comparison, the values obtained with the known preparation aescin sodium are given.

Data set [4] deals with isolated aorta sections. The experiment in a line: Isolated aorta section (modified Furchgott), contraction in noradrenalin. Details: species or system rabbit. As to conditions: in words. As for the experimental part: (§1) (1) Isolated vein and aorta sections
(§2) The tests were carried out on isolated vein and aorta sections from rabbits in accordance with the modified method of Furchgott et al (J. Pharmacol, exp. Ther. 108 (1953), page 129). The contraction of the vein section in adrenalin and of the aorta section in noradrenalin, after administration of 10^-6 g/ml of the test compound was defined to have the base value of 100.

Data set [5] has as its system permeability of the capillaries. Put plainly: Histamine rash test (modified Halpern), capillary permeability. As to conditions: 30 minutes before histamine. The data set is classed as in vivo. As for the experimental part: The test according to Halpern (Presse medicale 65 (1949), page 949) was used in modified form. The suppressive effect of the compounds according to the invention on the permeability of the capillaries was tested. The blue coloration induced by intravenous administration of trypan blue at two intracutaneous histamine injection points per animal, (trypan blue administered 2 minutes before the histamine), was estimated according to the following scale of values:
indications of blue coloration
clear blue coloration =4
stong blue coloration =6
The preceding evaluation was made from the combined effect at the two injection points.
The test substances were administered i.p. 30 minutes before the histamine injection.

Data set [6] concerns isolated guinea-pig heart. The experiment in a line: Relative coronary blood-flow change in isolated guinea-pig heart (Langendorff). As for the experimental part: (4) Relative coronary blood-flow change in an isolated guinea-pig heart.
The tests were carried out according to the method of Langendorff (Pflugers Archiv. 61 (1895), page 219).
In Table 5, the change in coronary blood flow after administration of various quantities of the test substance is compared with that after administration of the known compounds heptaminol and Aescin sodium salt.

Data set [7] relates to isolated vein sections. Put plainly: Isolated vein section (modified Furchgott), contraction in adrenalin. More on the design: species or system rabbit. The note with it: in words. Here is the method: as §1, §2
Data set [8] has as its system writhing movements in the mouse. Put plainly: Writhing test (Winter). The format is in vivo. From the text:
The analgesic activity of the compounds according to the invention were studied by the method of Winter et al (Proc. Soc. exp. Biol. Med, 111 (1962), page 544), in which the suppression of writhing movements in the mouse was observed.
(Writhing tests count abdominal constrictions after an irritant is injected.)

Data set [9] deals with carrageenin oedema in the rat paw. Put plainly: Suppression of carrageenin oedema in the rat paw (Siegmund). The data set is classed as in vivo. As to conditions: 3 h p.a. Here is the method: (7) Suppression of carrageenin oedema in the rat paw
The inflammation-reducing and anti-oedematous effects on carrageenin and serotonin oedemas in the rat paw were studied according to Siegmund et al (Proc. Soc. exp. Biol. Med. 95 (1957), page 729). The values are given as percentages, based on the values obtained in control tests using a dummy procedure. In this way, the antiphlogistic activity of the substances according to the invention was tested.
For orientation: The carrageenan paw model is a standard test of acute inflammation.

Data set [10] deals with mouse. The experiment in a line: Hot-plate test (Chen and Beckman). The data set is classed as in vivo. The note with it: 50 mg/kg per os. Here is the method:
This test was performed on the mouse, according to Chen and Beckman (see Science 113 (1951), page 631). 50 mg/kg of the compound No. 2 (cf. formula sheet) which has been administered per os increase the reaction time of the animals by 70%.
On the technique in general: Thermal pain tests record how soon the animal reacts.

Structures are written as SMILES. Counter-ions that a name gives are not always drawn.

A word on the LD50: it is the dose at which mortality reaches 50%. Lower therefore signals a more toxic substance. In the case of `CCC(C)C(C)NCc1c(C)cc(C)cc1C` (centres unmarked) [Serial No. 27], the median lethal dose (LD50) is 100 to 250 mg/kg in data set [1] (ip) and 2400 mg/kg in data set [1] (po). Also, the “Increase in tonus, isolated rat's portal vein” value in data set [2] (10^-4 g/ml) is recorded as “+250 milligrams”; in data set [2] (10^-5 g/ml) it was “+19 milligrams”; in [2] (10^-6 g/ml), -9 milligrams. The “Relative change in blood flow, vaso-dilator activity” value (“Relative change in blood flow” for short) in data set [3] (3 × 10^-5 g/ml) was “+12”; in data set [3] (10^-6 g/ml) it was “+4”. Besides, the “Vasotonic activity compared with aescin sodium (aorta, Table 3)” value in data set [4] is recorded as “stronger vasotonic activity than the comparison substance aescin sodium”. Also, the “Histamine rash test, blue coloration score (0 = none, 2 = indications, 4 = clear, 6 = strong)” value (“Histamine rash test” below) was 3.6 in data set [5] (1.0 mg/kg i.p.) and 1.9 in data set [5] (3.0 mg/kg i.p.).
As to `CCCCCCC(C)NCc1c(C)cc(C)cc1C` (centres unmarked) [Serial No. 26], the “Relative change in coronary blood flow” value in data set [6] (10 μg (first figure where two are given)) was “+28”; in data set [6] (30 μg (first figure where two are given)), “+57”. Further, in data set [7], the “Vasotonic activity compared with aescin sodium (vein, Table 2)” value is recorded as “stronger vasotonic activity than the comparison substance aescin sodium”. In data set [1] (ip), this molecule showed an LD50 of 50 to 100 mg/kg. For the same molecule, the “Suppression of writhing movements” value in [8] (50 mg/kg p.o.) is listed as 45%. In addition, the results for the “Relative change in blood flow” value in data set [3] (10^-5 g/ml), in data set [3] (10^-6 g/ml) and in data set [3] (10^-7 g/ml) were “+58”, “+29” and “+7”, respectively. Also, the “Histamine rash test” value in data set [5] (1.0 mg/kg i.p.) is given as 1.8; in data set [5] (3.0 mg/kg i.p.) it was 1.2. For the same molecule, in data set [9] (100 mg/kg p.o.), the “Suppression of carrageenin oedema in the paw (antiphlogistic activity)” value came out at 39%.
On to `CCCCCC(C)NCc1c(C)cc(C)cc1C` (centres unmarked) [Serial No. 2, 2-(2,4,6-Trimethylbenzyl)-aminoheptane hydrochloride], for which the “Relative change in coronary blood flow” value in [6] (100 μg (first figure where two are given)) is “+120”. Moreover, in data set [10], the “Increase in reaction time of the animals” value is recorded as 70%. In addition, the values for the LD50 in data set [1] (ip), in [1] (iv) and in [1] (po) were 114 mg/kg, 11.7 mg/kg and 940 mg/kg, respectively. Further, the “Suppression of writhing movements” value was determined as 32% in [8] (40 mg/kg p.o.), 53% in data set [8] (50 mg/kg p.o.), 51% in data set [8] (63 mg/kg p.o.) and 80% in [8] (100 mg/kg p.o.). Also, the “Increase in tonus, isolated rat's portal vein” value in data set [2] (10^-4 g/ml) is given as “+185 milligrams”; in data set [2] (10^-5 g/ml), “+106 milligrams”. Besides, the “Relative change in blood flow” value in data set [3] (10^-4 g/ml) is “+112”; in data set [3] (10^-5 g/ml) it was “+73”; in data set [3] (10^-6 g/ml), “+31”; in data set [3] (10^-7 g/ml), “+3”. Moreover, the “Histamine rash test” value in data set [5] (0.1 mg/kg i.p.) was determined as 3.5; in [5] (0.3 mg/kg i.p.), 3.4; in data set [5] (1.0 mg/kg i.p.) it was 2.6; in [5] (3.0 mg/kg i.p.) it was 1.7; in data set [5] (10.0 mg/kg i.p.), 1.9. Moreover, the “Suppression of carrageenin oedema in the paw (antiphlogistic activity)” value in [9] (25 mg/kg p.o.) is given as 53%; in data set [9] (63 mg/kg p.o.) it was 52%; in data set [9] (100 mg/kg p.o.), 46%.

Source of the values: patent US4312861A, “Pharmaceutical compositions containing N-alkyl-N-(nuclearly-substituted) benzylamines having vasotonia-regulating activity” (Hoechst Aktiengesellschaft, priority 1974, dated 1982).
